# Laboratory results reported in US6444688B1, “Compounds and compositions with nitrogen-containing non-basic side chains” (Eli Lilly and Company, priority 1995, dated 2002).
# pEC50: −log10 of the molar value. Marks after values point to notes of the source that are not given here.
# Columns and labels:
# [1] = system: ovariectomized (OVX) rats; experiment: Four day dosing regimen, post-menopausal rat model: wet uterine weight; assay type: in vivo, Sprague Dawley rats; settings: for Uterine Weight (% inc. OVX): OVX rats, oral, daily for 4 days
# Experimental: (§1) Animals were dosed daily for 4 days. […] A blood sample was collected by cardiac puncture.
# [2] = system: uterine eosinophil peroxidase activity; experiment: Uterine eosinophil peroxidase (EPO) assay, four day dosing; assay type: in vivo, Sprague Dawley rats; settings: for Uterine EPO (Vmax): OVX rats, oral, daily for 4 days
# Experimental: as §1
# [3] = system: ovariectomized (OVX) rats; experiment: Serum cholesterol analysis, four day dosing; assay type: in vivo, Sprague Dawley rats
# Experimental: as §1
# Blood samples were allowed to clot at room temperature for 2 hours, and serum was obtained following centrifugation for 10 minutes at 3000 rpm. Serum cholesterol was determined using a Boehringer Mannheim Diagnostics high performance cholesterol assay. Briefly the cholesterol was oxidized to cholest-4-en-3-one and hydrogen peroxide. The hydrogen peroxide was then reacted with phenol and 4-aminophenazone in the presence of peroxidase to produce a p-quinone imine dye, which was read spectrophotemetrically at 500 nm. Cholesterol concentration was then calculated against a standard curve. The entire assay was automated using a Biomek Automated Workstation.
# [4] = system: MCF-7 breast adenocarcinoma cells; experiment: MCF-7 proliferation assay (tritiated thymidine); assay type: cell-based; settings: Homo sapiens, MCF7; MCF-7 cells, 48 hours with drug, tritiated thymidine pulse 4 hours; read-out: ED50 (the source's name)
# Experimental: MCF-7 breast adenocarcinoma cells (ATCC HTB 22) were maintained in MEM (minimal essential medium, phenol red-free, Sigma, St. Louis, Mo.) supplemented with 10% fetal bovine serum (FBS) (V/V), L-glutamine (2 mM), sodium pyruvate (1 mM), HEPES {(N-[2-hydroxyethyl]piperazine-N′-[2-ethanesulfonic acid]10 mM}, non-essential amino acids and bovine insulin (1 μg/ml) (maintenance medium). Ten days prior to assay, MCF-7 cells were switched to maintenance medium supplemented with 10% dextrancoated charcoal stripped fetal bovine serum (DCC-FBS) assay medium) in place of 10% FBS to deplete internal stores of steroids. MCF-7 cells were removed from maintenance flasks using cell dissociation medium (Ca++/Mg++ free HBSS (phenol red-free) supplemented with 10 mM HEPES and 2 mM EDTA). Cells were washed twice with assay medium and adjusted to 80,000 cells/ml. Approximately […] (8,000 cells) were added to flat-bottom microculture wells (Costar 3596) and incubated at 37° C. in a 5% CO2 humidified incubator for 48 hours to allow for cell adherence and equilibration after transfer. Serial dilutions of drugs or DMSO as a diluent control were prepared in assay medium and […] to triplicate microcultures followed by […] assay medium for a final volume of […]. […] Samples were counted by liquid scintillation. […]
# [5] = system: ovariectomized (OVX) rats; experiment: Thirty-five day dosing regimen: bone density assay (tibia, single photon absorptiometry); assay type: in vivo, Sprague Dawley rats; settings: oral in 20% hydroxypropyl β-cyclodextrin, daily for 35 days
# Experimental: Following the General Preparation procedure described above, the rats were treated daily for 35 days (6 rats per treatment group) and sacrificed by decapitation on the 36th day. The 35 day time period was sufficient to allow maximal effect on bone density, measured as described herein. At the time of sacrifice, the uteri were removed, dissected free of extraneous tissue, and the fluid contents were expelled before determination of wet weight in order to confirm estrogen deficiency associated with complete ovariectomy. […] The uteri were then placed in 10% neutral buffered formalin to allow for subsequent histological analysis. The right tibias were excised and scanned at the distal metaphysis 1 mm from the patellar groove with single photon absorptiometry. Results of the densitometer measurements represent a calculation of bone density as a function of the bone mineral content and bone width. In accordance with the procedures outlined above, compounds of the present invention and EE2 in 20% hydroxypropyl β-cyclodextrin were orally administered to test animals.
# [6] = Rattus norvegicus, po, 96 h, OVX rats, oral, daily for 4 days, read-out: Serum Cholesterol (% dec. OVX)
SMILES,Uterine Weight (% inc. OVX) ([1]; dose 0.1 mg/kg),Uterine Weight (% inc. OVX) ([1]; dose 1 mg/kg),Uterine Weight (% inc. OVX) ([1]; dose 10 mg/kg),Uterine EPO (Vmax) ([2]; dose 0.1 mg/kg),Uterine EPO (Vmax) ([2]; dose 1 mg/kg),Uterine EPO (Vmax) ([2]; dose 10 mg/kg),"inhibition in vivo at 0.1 mg/kg ([3]; Rattus norvegicus, po, 96 h, OVX rats, oral, daily for 4 days, dose 0.1 mg/kg, read-out: Serum Cholesterol (% dec. OVX))","inhibition in vivo at 1 mg/kg [3, 6]","inhibition in vivo at 10 mg/kg [3, 6]",pEC50 [4],effect on uterine weight compared to ovariectomized animals (in words) ([1]; EE2 orally at 0.1 mg/Kg/day),"eosinophil infiltration into the uterus, by eosinophil peroxidase activity (in words) ([2]; ovariectomized rats)",effect on serum cholesterol compared to ovariectomized control animals (in words) ([3]; EE2 orally at 0.1 mg/Kg/day),tibia density / bone loss after ovariectomy (in words) [5]
COc1ccc(-c2sc3cc(OC)ccc3c2C(=O)c2ccc(OCC(=O)N3CCCCC3)cc2)cc1 [Compound 7],−0.5 % inc. OVX,−16.2 % inc. OVX,8.4 % inc. OVX,5.2 Vmax,3.7 Vmax,4.7 Vmax,3.4%,14.6%,-41.9%,< 6.00,,,,
CC(C)(C)C(=O)N1CCC(Oc2ccc(C(=O)c3c(-c4ccc(O)cc4)sc4cc(O)ccc34)cc2)CC1 [Compound 23],−4.3 % inc. OVX,0.8 % inc. OVX,22.3 % inc. OVX,1.6 Vmax,3.8 Vmax,6.7 Vmax,,,55.8%,,,,,
CC(=O)NCCOc1ccc(C(=O)c2c(-c3ccc(O)cc3)sc3cc(O)ccc23)cc1 [Compound 26],−17.5 % inc. OVX,−28.8* % inc. OVX,25.8* % inc. OVX,1.3 Vmax,0.7 Vmax,13.6 Vmax,,19%,32.8%,,,,,
"C#C[C@]1(O)CC[C@H]2[C@@H]3CCc4cc(O)ccc4[C@H]3CC[C@@]21C [ethynyl estradiol, 17α-Ethynyl estradiol, reference compound]",235.2* % inc. OVX,,,120.0* Vmax,,,,,,,substantially greater,"substantial, expected increase",decrease in serum cholesterol,prevented this loss
